Tests used:
[1] = test system: Mice; assay: corneal kindling; format: in vivo
Excerpt: Mice are kindled electrically with 3 sec stimulation, 8 mA, 60 Hz, and corneal electrodes to a criterion of 10 consecutive Stage 5 seizures (facial clonus and head nodding progressing to forelimb clonus, and finally rearing and falling accompanied by a generalized clonic seizure as described by Racine). Stage 5 is generally reached after twice daily stimulation for 8 days. With continued stimulation once a day, animals usually progress to a reproducible Stage 5 after 10-14 additional days. At least 72 hours after the mice have been kindled, the test substance is administered either i.p. or p.o. and, at the previously determined TPE, each animal is given the electrical stimulus indicated above. Following stimulation, the animals are observed for the presence or absence of the rearing and falling criteria of a Stage 5 seizure. Treated animals not displaying a Stage 3, 4, or 5 seizure are considered protected. The dose of the test substance is varied between the limits of 0 and 100% efficacy, and the ED50 (mean effective dose) and 95% confidence intervals calculated by probit analysis. Mean values and the S.E.M. are calculated for the length of clonus and seizure duration and p values are determined by the Student's t-test

[2] = test system: Sprague-Dawley rats; assay: μPET imaging of 11C-raclopride binding after cocaine
[3] = test system: Mice; assay: minimal clonic seizure (6 Hz) test; format: in vivo; conditions: Single IP drug dose, 3 seconds, corneal electrode; for ED50: Mus musculus, ip
Excerpt: Some clinically useful AEDs are ineffective in the standard MES and scMET tests but still have anticonvulsant activities in vivo. In order to identify potential AEDs with this profile, compounds may be tested in the minimal clonic seizure (6 Hz or ‘psychomotor’) test (Barton et al., 2001). […] Test compounds are pre-administered to mice via i.p. injection. At varying times, individual mice (four per time point) are challenged with sufficient current delivered through corneal electrodes to elicit a psychomotor seizure in 97% of animals (32 mA for 3 s) (Toman et al., 1952). Untreated mice will display seizures characterized by a minimal clonic phase followed by stereotyped, automatistic behaviors described originally as being similar to the aura of human patients with partial seizures. Animals not displaying this behavior are considered protected. The test may be evaluated quantitatively by measuring the responses at varying doses at a determined time of peak effect (TPE). This test may also be conducted at 22 and 44 mA if requested by ASP staff.

[4] = test system: Mice; assay: maximal electrical shock (MES) model; format: in vivo; conditions: Single IP dose, 50 mA, 2 seconds, corneal electrode
Excerpt: The MES is a model for generalized tonic-clonic seizures and provides an indication of a compound's ability to prevent seizure spread when all neuronal circuits in the brain are maximally active. These seizures are highly reproducible and are electrophysiologically consistent with human seizures. For all tests based on MES convulsions, 60 Hz of alternating current (50 mA in mice) is delivered for 2 s by corneal electrodes which have been primed with an electrolyte solution containing an anesthetic agent (0.5% tetracaine HCL). Mice are tested at various intervals following doses of 30, 100 and 300 mg/kg of test compound given by i.p. injection of a volume of 0.01 mL/g. Other doses can be used if indicated by previously known pharmacology. An animal is considered “protected” from MES-induced seizures upon abolition of the hindlimb tonic extensor component of the seizure (Swinyard et al., 1989; White et al., 1995a; White et al., 1995b).

[5] = test system: GABA transporters in neurons, astrocytes, or mammalian cells recombinantly expressing human or mouse transporter subtypes; assay: [3H]GABA uptake, all transporter systems; format: cell-based; conditions: 1 mM concentration
Experimental: tsA201 cells were cultured in GlutaMAX-I DMEM supplemented with 10% fetal bovine serum, penicillin (100 U/ml), and streptomycin (100 μg/ml) at 37° C. in a humidified atmosphere of 95% air and 5% CO2. […] J. Biol. Chem. 2007, 282, 19331-19341. […] Quantification was performed by using Microscint™ 20 scintillation fluid (PerkinElmer) and a Packard TopCount microplate scintillation counter.
Cortical astrocytes were cultured essentially as previously described. Hertz L, Juurlink B H J, Hertz E, Fosmark H and Schousboe A. Preparation of Primary Cultures of Mouse (Rat) Astrocytes, in A Dissection and Tissue Culture Manual of the Nervous System (Shahar A, de Vellis J, Vernadakis A and Haber B eds) pp 105-108, Alan R. Liss, Inc., New York, 1989 The neopallium was removed from new born NMRI mice (Taconic, Denmark) and passed through an 80 μm nylon sieve and cultured in modified Dulbecco's modified Eagle's medium with fetal calf serum. […]
Cortical neurons were cultured essentially as previously described by removing the neopallium of 15-day old NMRI embryos by dissection followed by mild trypsination. […] Radioactivity was measured using Microscint™ 20 scintillation fluid (PerkinElmer) and a Packard TopCount microplate scintillation counter.

Compound: N[C@H]1C[C@@H](C(=O)O)CC1=C(F)F [CPP-115]
- Corn. Kind. TPE ([1]; Single IP drug dose, primed @ 8 mA, 60 Hz, 3 secs, for 8 days): TPE 4 hours
- ED50 ([1]; ip, 192 h, read-out: Corn. Kind. ED50): 20.1 mg/kg
- effective dose, times lower than the 300 mg/kg dose of vigabatrin ([2]; 0.5 mg/kg versus 300 mg/kg): 600 times
- effect on cocaine-induced increases in synaptic dopamine ([2]; 0.5 mg/kg, 2.5 h before cocaine 5.0 mg/kg i.v.): complete blockade of cocaine-induced increases in synaptic dopamine
- dose blocking cocaine-induced dopamine increase and CPP, times lower than vigabatrin ([2]; μPET and CPP, summary statement): 100 times
- ED50 ([3]; 32 mA): 5.2 mg/kg
- ED50 ([3]; 44 mA): 28.4 mg/kg
- 6 Hz TPE ([3]; 32 mA): TPE 4 hours
- 6 Hz TPE ([3]; 44 mA): TPE 4 hours
- ED50 ([4]; Mus musculus): 58.9 mg/kg
- MES TPE [4]: TPE 6 hours
- inhibitory activity at GABA transporters [5]: no inhibitory activity

From US8969413B2
